Data: patent US6407248B1, “α-unsaturated amines, their production and use” (Takeda Chemical Industries, Ltd., priority 1987, dated 2002)

Columns and labels:
[1] = tested on: Brown Planthoppers (Nilaparvata lugens); test: Effect against brown planthoppers (foliar spray on rice seedlings); assay type: in vivo; conditions: Nilaparvata lugens, foliar, 168 h, read-out: % Mortality after 7 days
Description: Effect Against Brown Planthoppers (Nilaparvata lugens)
An emulsifiable concentrate of the compound of the invention, prepared in the same manner as Example 112 below, was diluted with water to a concentration of 500 ppm and sprayed over the stems and leaves of rice seedlings in the 2-leaf stage at the rate of 10 ml per paper pot. Water was put in test tubes and the treated rice seedlings were placed therein. Then, 10 brown planthopper larvae were released in each tube, which was then capped with an aluminum cap. The test tubes were maintained in an incubator at 25° C. and the dead insects were counted 7 days after release. The % mortality was calculated using the following formula. [formula]

| Structure (SMILES) | melting point | mortality at 500 µg/mL [1] |
| --- | --- | --- |
| CSC(=C[N+](=O)[O-])NCc1cccnc1 | 129 to 130 °C |  |
| O=[N+]([O-])C=C(NCc1cccnc1)NCc1cccnc1 | 141 to 143 °C |  |
| NC(=C[N+](=O)[O-])NCc1cccnc1 | 177 to 178 °C (dec.) |  |
| CCCSCCNC(=C[N+](=O)[O-])NCc1cccnc1 | 93 to 94 °C |  |
| O=[N+]([O-])C=C(NCCO)NCc1cccnc1 | 161 to 163 °C |  |
| COC(CNC(=C[N+](=O)[O-])NCc1cccnc1)OC | 96 to 98 °C |  |
| O=[N+]([O-])C=C(NCc1cccnc1)NCC(F)(F)F | 164 to 165 °C |  |
| O=[N+]([O-])C=C(NCc1cccnc1)N1CCOCC1 | 102 to 103 °C |  |
| CC(C)NC(=C[N+](=O)[O-])NCc1cccnc1 | 148 to 150 °C |  |
| CCCCNC(=C[N+](=O)[O-])NCc1cccnc1 | 110 to 112 °C |  |
| CCCCCNC(=C[N+](=O)[O-])NCc1cccnc1 | 97 to 98 °C |  |
| O=[N+]([O-])C=C(NCc1cccnc1)Nc1ccccc1 | 217 to 218 °C |  |
| CN(C)C(=C[N+](=O)[O-])N(C=O)Cc1ccc(Br)nc1 [Compound 128, 1-[N-(6-Bromo-3-pyridylmethyl)-N-formyl]amino-1-dimethylamino-2-nitroethylene] |  | 100% |
| CN(Cc1ccc(Br)nc1)C(N)=C[N+](=O)[O-] [Compound 129, 1-Amino-1-[N-(6-bromo-3-pyridylmethyl)-N-methyl]amino-2-nitroethylene] |  | 100% |
| CN(C)C(=C[N+](=O)[O-])N(C=O)Cc1cnc(Cl)s1 [Compound 130, 1-[N-(2-Chloro-5-thiazolylmethyl)-N-formyl]amino-1-dimethylamino-2-nitroethylene] |  | 100% |
| CNC(=C[N+](=O)[O-])N(Cc1ccc(Cl)nc1)CC(F)(F)F [Compound 131, 1-[N-(6-Chloro-3-pyridylmethyl)-N-(2,2,2-trifluoroethyl)]amino-1-methylamino-2-nitroethylene] |  | 100% |
